# According to patent US6653337B2, “Therapy of auto-immune disease by a photochemotherapeutical method” (Meiji Seika Kaisha, Ltd., priority 1996, dated 2003):
# Several values for one entry are separate records, joined by “and”; a condition that tells them apart may be missing. Equal values may be shown once. Entries after “also recorded” stand apart in the source; their conditions may differ.
# How the values were obtained:
# [1] = test system: MRL/1pr mice; assay: Liver (GPT enzyme in blood) and skin safety in MRL/1pr mice after NPe6 photochemotherapy; assay type: in vivo
# Protocol: To MRL/1pr mice (eight mice per group) of 18 week-old age which have been affected completely by auto-immune diseases, a solution of mono-L-aspartyl chlorin e6 tetrasodium salt (abbreviation: NPe6) dissolved in a physiological saline solution at a NPe6 concentration of 0.1 mg/ml was intra-venously administered in such an amount to give a dosage of NPe6 of 0.5 mg/kg. After 30 minutes from the administration of NPe6, the mice were irradiated with a laser light at wave-length of 664 nm in such a manner that the skin surface on the abdominal region already shaved off of said mice would receive the laser light over a wide area of about 25 cm^2 per mouse tested at an intensity of 20 Joules/cm^2. Thus, the NPe6 contained in the blood stream within the blood vessel beneath the skin of the abdominal region of the mice was irradiated with the laser light and thereby was excited photochemically. […] After 24 hours from the completion of the therapeutic treatments, which was counted from the final run of irradiation of the laser light applied to the mice of the treated group, and thus at the time when the mice tested became 19 week-old, the judgment was made about the therapeutical effects appeared on the treated mice. […]
# [2] = test system: CD-1 mice (male); assay: Acute toxicity of NPe6 in mice (LD50); assay type: in vivo
# [3] = test system: MRL/1pr mice; assay: Survival of MRL/1pr mice after NPe6 photochemotherapy; assay type: in vivo; details: for Survival rate (%) of the mice: treated group, 8 mice
# Description: (§1) MRL/1pr mice, which are known as a model of a spontaneous systemic auto-immune diseases, have such inherent property that they spontaneously develop the systemic auto-immune disease due to 1pr-gene. In this case, the characteristic observations of the resulting auto-immune disease include the formation of lymphoma and splenoma as caused by proliferation of heterolymphoid cells, the production of anti-ds-DNA antibody as the auto-antibody, and (or) the outbreak of lupus nephritis owing to the deposition of immune complexes, whereby an early death of the MRL/1pr mice can naturally be involved. For instance, untreated MRL/1pr mice usually have such nature that their mortality reaches 50% at 25 week-old.
# To MRL/1pr mice (eight mice per group) of 18 week-old age which have been affected completely by auto-immune diseases, a solution of mono-L-aspartyl chlorin e6 tetrasodium salt (abbreviation: NPe6) dissolved in a physiological saline solution at a NPe6 concentration of 0.1 mg/ml was intra-venously administered in such an amount to give a dosage of NPe6 of 0.5 mg/kg. After 30 minutes from the administration of NPe6, the mice were irradiated with a laser light at wave-length of 664 nm in such a manner that the skin surface on the abdominal region already shaved off of said mice would receive the laser light over a wide area of about 25 cm^2 per mouse tested at an intensity of 20 Joules/cm^2. Thus, the NPe6 contained in the blood stream within the blood vessel beneath the skin of the abdominal region of the mice was irradiated with the laser light and thereby was excited photochemically. Such photochemotherapeutic procedure comprising the intravenous administration of NPe6 and the irradiation of the laser light was applied eight times to each of the mice under test for 10 days. After 24 hours from the completion of the therapeutic treatments, which was counted from the final run of irradiation of the laser light applied to the mice of the treated group, and thus at the time when the mice tested became 19 week-old, the judgment was made about the therapeutical effects appeared on the treated mice. Further, the survival effect on the treated mice was also observed over the period of from the start of practicing this therapeutic treatments to the point of the 49 week-old age of the mice.
# For the untreated group of MRL/1pr mice (10 mice per group, 18-weeks old), merely a physiological saline solution (containing no NPe6) was administered intravenously in the same amount as that for the treated group of mice, and then the mice were irradiated with a laser light as similar as the treated group of mice.
# (3) After the completion of the treatment as effected by the above-mentioned photochemotherapeutic procedure, the mice under the test were bred to be 49-weeks old and the survival rate (%) of the mice was measured once a week.
# [4] = test system: anti-ds-DNA antibody; assay: Anti-ds-DNA antibody value in blood of MRL/1pr mice after NPe6 photochemotherapy (Anti-DNA kit); assay type: in vivo
# Description: as §1
# (§2) To MRL/1pr mice (eight mice per group) of 18 week-old age which have been affected completely by auto-immune diseases, a solution of mono-L-aspartyl chlorin e6 tetrasodium salt (abbreviation: NPe6) dissolved in a physiological saline solution at a NPe6 concentration of 0.1 mg/ml was intra-venously administered in such an amount to give a dosage of NPe6 of 0.5 mg/kg. […] After 24 hours from the completion of the therapeutic treatments, which was counted from the final run of irradiation of the laser light applied to the mice of the treated group, and thus at the time when the mice tested became 19 week-old, the judgment was made about the therapeutical effects appeared on the treated mice. […]
# [5] = test system: MRL/1pr mice; assay: Kidney function (urea nitrogen in blood, protein in urine) of MRL/1pr mice after NPe6 photochemotherapy; assay type: in vivo; details: 19 weeks old, 24 h after 8th laser irradiation, NPe6 0.5 mg/kg i.v. + 664 nm laser, eight times
# Description: as §1, §2
# [6] = in vivo
smiles,measurement,setting,value
"C=Cc1c(C)c2cc3nc(c(CC(=O)N[C@@H](CC(=O)[O-])C(=O)[O-])c4[nH]c(cc5nc(cc1[nH]2)C(C)=C5CC)c(C)c4C(=O)[O-])[C@@H](CCC(=O)[O-])[C@@H]3C.[Na+].[Na+].[Na+].[Na+] [NPe6, mono-L-aspartyl chlorin e6 tetrasodium salt]",content of GPT enzyme in the blood compared with untreated group,"[1]; 19 weeks old, 24 h after 8th laser irradiation",no difference was found
same,visual observation of the skin after eight percutaneous laser irradiations,"[1]; shaved abdominal region, 664 nm laser 20 Joules/cm^2",not observed visually that any action of changing the skin was involved
same,"acute toxicity, LD50 value",[2],164 mg/kg
same,Survival rate (%) of the mice,"[3]; age 18 weeks (start of treatment), number in parentheses = surviving mice",100 (8) %
same,Survival rate (%) of the mice,[3]; age 20 weeks,100 (8) %
same,Survival rate (%) of the mice,[3]; age 21 weeks,100 (8) %
same,Survival rate (%) of the mice,[3]; age 23 weeks,100 (8) %
same,Survival rate (%) of the mice,[3]; age 25 weeks,100% and 100 (8) %
same,Survival rate (%) of the mice,[3]; age 27 weeks,100 (8) %
same,Survival rate (%) of the mice,[3]; age 30 weeks,100 (8) %
same,Survival rate (%) of the mice,[3]; age 33 weeks,88 (7) %
same,Survival rate (%) of the mice,[3]; age 36 weeks,88 (7) %
same,Survival rate (%) of the mice,[3]; age 43 weeks,75 (6) %
same,Survival rate (%) of the mice,[3]; age 46 weeks,63 (5) %
same,Survival rate (%) of the mice,[3]; age 49 weeks,63 (5) %
same,age at which the survival rate of the mice is 50 %,[3]; treated group of MRL/1pr mice,> 49 weeks
same,antibody value of anti-ds-DNA antibody in blood,"[4]; 19 weeks old, 24 h after 8th laser irradiation, NPe6 0.5 mg/kg i.v. + 664 nm laser 20 Joules/cm^2, eight times for 10 days",5.7±5.3 IU/ml
same,"effect on antibody value of the auto-antibody (anti-ds-DNA) in blood, in words","[4]; NPe6 i.v. + laser light at 664 nm, versus untreated group",decreasing remarkably the antibody value; also recorded: significantly and remarkably decreased
same,content of protein in urine,[5],85.2 ± 5.0 mg/dL
same,content of urea nitrogen in blood,[5],22.3 ± 1.4 mg/dL
same,"photo-toxicity test: reactions such as erythema, edema",[6],"no reactions such as erythema, edema"
